This data set is described as follows: activity coefficient (dimensionless); of the first substance listed, at infinite dilution; xn = mol fraction of the nth substance listed. The settings on record: Liquid, Chromatography, x1 = 0.

Numbers after ± are expanded uncertainties.

In the case of `CCC` [propane] + CCCO, the activity coefficient runs as follows: (259.98 K) 4.6 ± 0.2; (279.96 K) 4.62 ± 0.2; (299.96 K) 4.64 ± 0.2; (320.03 K) 4.61 ± 0.2; (339.95 K) 4.56 ± 0.2.

As for `C=CCC` [1-butene] + CCCO, the activity coefficient (260.03 K) was found to be 4.13 ± 0.18; the activity coefficient (280.04 K) turned out to be 4.12 ± 0.18; the activity coefficient (299.98 K) is 4.11 ± 0.18; the activity coefficient (320.03 K) was found to be 4.05 ± 0.18; the activity coefficient (340 K) came out at 4.01 ± 0.18.

Consider `C=CC` [propene] + CCCO, for which the activity coefficient (259.92 K) stood at 3.58 ± 0.16; the activity coefficient (279.94 K) worked out at 3.61 ± 0.16; the activity coefficient (300.03 K) was 3.66 ± 0.16; the activity coefficient (320.02 K) worked out at 3.64 ± 0.16; the activity coefficient (340.1 K) turned out to be 3.64 ± 0.16.

`C=CC=C` [1,3-butadiene] + CCCO: the activity coefficient was determined as 4.2 ± 0.19 (260.02 K); 4.15 ± 0.18 (280.03 K); 4.1 ± 0.18 (299.99 K); 4.06 ± 0.18 (320.09 K); 3.98 ± 0.18 (340.06 K).

With `C/C=C/C` [(E)-2-butene] + CCCO, the activity coefficient runs as follows: (260.02 K) 4.2 ± 0.19; (280.03 K) 4.15 ± 0.18; (299.99 K) 4.1 ± 0.18; (320.09 K) 4.06 ± 0.18; (340.06 K) 3.98 ± 0.18.

Take `CCCC` [butane] + CCCO: the activity coefficient runs as follows: (260.05 K) 5.17 ± 0.23; (280.05 K) 5.06 ± 0.22; (299.99 K) 5.03 ± 0.22; (320.05 K) 4.88 ± 0.22.

Consider `CC(C)C` [2-methylpropane] + CCCO, for which the activity coefficient (259.98 K) was found to be 5.48 ± 0.24; the activity coefficient (279.94 K) is 5.37 ± 0.24; the activity coefficient (300.16 K) was determined as 5.24 ± 0.23; the activity coefficient (320 K) stood at 5.14 ± 0.23; the activity coefficient (339.92 K) worked out at 5.05 ± 0.22.

Turning to `C=C(C)C` [2-methylpropene] + CCCO, the activity coefficient is, setting by setting: (259.91 K) 4.09 ± 0.18; (279.95 K) 4.08 ± 0.18; (299.94 K) 4.04 ± 0.18; (320.06 K) 4 ± 0.18; (340.16 K) 3.94 ± 0.17.

Values taken from the NIST ThermoML archive (doi:10.1016/j.jct.2003.08.018).
